According to publication PMC12298827, “Subchronic Toxicities of Four Per- and Polyfluoroalkyl Substances (PFASs) by Oral Exposure in Sprague–Dawley Rats” (Toxics, 2025):

What was measured:
[1] = tested on: male and female SD rats; assay: 14-day dose-range-finding oral gavage study; type: in vivo, rat; settings: both sexes, all doses
Experimental: (§1) Dose-range-finding (14-day) studies were conducted using male and female rats to establish dose levels for 90-day studies and identify potential target organ toxicities. Male and female rats (n = 5 sex/group, a control and three dose groups, corn oil vehicle dose volume of 5 mL/kg) were administered PFASs by oral gavage daily for 14 days and euthanized on study day (SD) 15. The dose levels for PFHI, CTFPA, and MHFPK were 0, 30, 100, and 300 mg/kg-day. The dose levels for PFNAC were 0, 10, 30, and 100 mg/kg-day. The in vivo data collected included BW, BWCs, FC, cage-side observations, and physical exams. Gross necropsies, relative and absolute organ weights, and clinical chemistry data were collected for all the groups. Macroscopic and microscopic pathology examinations were conducted for the control and high-dose groups initially; the other groups were examined if justified by experimental findings. Plasma samples were analyzed ~2 h post dosing on day 1 and at day 15 for the parent PFAS chemical.
Neurotoxicity was evaluated using the functional observational battery (FOB) and measuring locomotor activity (LMA) 2–4 h post dosing on SDs 78–80 and 80–84, respectively. For both the 14- and 90-day studies, an ophthalmologic examination was conducted prior to randomization and near the end of the study, using indirect ophthalmoscopy and slit–lamp biomicroscopy (as needed) after the administration of a mydriatic solution.
Hematology, biochemistry, and coagulation endpoints were measured at the termination of the study. A Siemens Advia 2120i hematology analyzer (Siemens Healthineers, Erlangen, Germany) was used to measure (or calculate) the parameters related to the complete blood count, leukocyte differential count, and reticulocyte count. The hematology parameters are listed and described in Table 2. The prothrombin time […] and activated partial thromboplastin time (APTT) were measured using an Instrumentation Laboratory (Bedford, MA, USA) ACL Elite Pro coagulation analyzer (laser–nephelometric centrifugal method).
At necropsy, the rats were visually examined for external abnormalities and organ weights (absolute and relative to the BW and brain weight), which were recorded (paired organs weighed together). The tissues were preserved in 10% neutral buffered formalin (NBF), except for the ocular tissues, testes, and epididymides, which were preserved in modified Davidson’s fixative and later transferred to 10% NBF. Bone marrow smears were prepared from the femurs, and the slides were air-dried, fixed in methanol, stained, and stored at room temperature for possible future evaluation. The preserved tissues were embedded in paraffin, sectioned, stained with hematoxylin and eosin, and examined by a board-certified veterinary pathologist.

[2] = Parent chemical in rat plasma, 14-day study; type: in vivo; settings: for concentration at 15 day: Sprague-Dawley, rat, plasma, oral
Experimental: as §1
(§2) On SD 1 of the 14-day study (~2 h post dosing), 0.2 mL of blood was collected via tail vein puncture in tubes containing K3EDTA and stored on wet ice. Prior to the scheduled euthanasia, blood (~1 mL) was collected from the jugular vein in tubes containing K3EDTA and stored on wet ice on SD 15, for the 14-day study, and SD 91, for the 90-day study. All the tubes were centrifuged at an ~1500 relative centrifugal force within 1 h of collection for 15 min at 5 ± 3 °C. The plasma was stored at −75 ± 15 °C until the analysis. PFNAC and PFHI were analyzed using a headspace GC–mass spectrometry (MS) method, as summarized in Table S3, and CTFPA was analyzed using an ultra-HPLC-MS method, as summarized in Table S4. The MHFPK samples were not analyzed because a method suitable for plasma was not available. The details concerning the preparation of the samples, method blanks, and matrix and QC standards for the analysis are available in the appendices to the study reports.

[3] = Parent chemical in rat plasma, 90-day study; type: in vivo; settings: for concentration at 91 day: Sprague-Dawley, rat, plasma, oral
Experimental: Subchronic (90-day) studies were performed in accordance with current U.S. EPA’s Toxic Substances Control Act Good Laboratory Practice (GLP) Standards, with the following two general exceptions to the GLP guidelines: Analysis of the dose formulations was conducted according to RTI-approved Standard Operating Procedures, and corn oil (the vehicle) was not characterized (certificate of analysis from the vendor is available in the appendices to the final reports). Male and female Sprague–Dawley rats (five dose levels plus a control, n = 10/sex/dose group, corn oil vehicle dose volume of 3 mL/kg; oral gavage) were used in these studies, and the rats were euthanized on SD 91. The dose levels for PFHI were 0, 12.5, 25, 50, 100, and 200 mg/kg-day. The dose levels for MHFPK were 0, 18.8, 37.5, 75, 150, and 300 mg/kg-day. The dose levels for PFNAC were 0, 0.1, 0.3, 1.0, 3.0, and 10 mg/kg-day for male rats and 0, 0.3, 1.0, 3.0, 10, and 30 mg/kg-day for female rats. For CTFPA, the dose levels were 0, 1.9, 3.8. 7.5, 15, and 30 mg/kg-day for male rats and 0, 6.3, 12.5, 25, 50, and 100 mg/kg-day for female rats. For each PFAS, three batches of dosing solution were prepared. The time between the batch preparation of the dosing solutions ranged between 29 and 39 days. Blood samples were collected from all the rats at termination for serum chemistry, hematology, coagulation, and the analysis of the parent PFAS chemical in the plasma. In vivo data collection and further detail on the endpoints examined postmortem are described below.
as §2

## FC(F)(F)C(F)(F)C(F)(F)C(F)(F)CCI [PFHI, 1H,1H,2H,2H-Perfluorohexyl iodide]
[1]
  Bodyweight and bodyweight gain: No changes
  Clinical chemistry: Mild increases in cholesterol levels in both sexes at 300 mg/kg-day and mild increases in glucose in males only at ≥100 mg/kg-day; from minimal to moderate increases in phosphorus in both sexes in all the dose groups
  Clinical observations: None
  Coagulation endpoints: No effects
  Feed consumption: Females: dose-dependent increase, not correlated with bodyweight changes; Males: no effects
  Gross lesions: None
  Hematology: Decreased red cell mass at 300 mg/kg-day in females and all the dose levels in males; minimal increases in absolute reticulocyte concentrations and from minimal to mild increases in MPV in both sexes at all the dose levels
  Histopathology: Mild liver hypertrophy in 4/5 males at 300 mg/kg-day and in 1/5 at 100 mg/kg-day; none in females
  Morbidity and mortality: None
  Ophthalmology: No ocular lesions
  Organ weight changes: Increases in absolute and relative liver weights in males at 300 mg/kg-day and increases in liver weight/bodyweight ratio at ≥100 mg/kg-day; no changes in females
[2]; 14-day study
  Lower plasma concentration for SD 15 compared to SD 1: 10- to 100 fold
[2]; female, Day 15, 300 mg/kg-day
  concentration at 15 day: 14.3 ± 7.12 ng/mL
[2]; male, Day 15, 100 mg/kg-day
  concentration at 15 day: 4.87 ± 1.93 ng/mL
[2]; male, Day 15, 300 mg/kg-day
  concentration at 15 day: 26.7 ± 8.79 ng/mL
[2]; female, Day 1, 30 mg/kg-day
  Parent chemical in plasma: 14.7 ± 8.21 ng/mL
[2]; female, Day 1, 100 mg/kg-day
  Parent chemical in plasma: 470 ± 427 ng/mL
[2]; female, Day 1, 300 mg/kg-day
  Parent chemical in plasma: 1070 ± 689 ng/mL
[2]; female, Day 15, 30 mg/kg-day
  Parent chemical in plasma: ND/BLOD
[2]; female, Day 15, 100 mg/kg-day
  Parent chemical in plasma: ≤LOQ
[2]; male, Day 1 (2 hours post dosing), 30 mg/kg-day
  Parent chemical in plasma: 159 ± 79.3 ng/mL
[2]; male, Day 1 (2 hours post dosing), 100 mg/kg-day
  Parent chemical in plasma: 333 ± 147 ng/mL
[2]; male, Day 1 (2 hours post dosing), 300 mg/kg-day
  Parent chemical in plasma: 2040 ± 1250 ng/mL
[2]; male, Day 15, 30 mg/kg-day
  Parent chemical in plasma: <BLOD/≤LOQ
[3]; female, Day 91, 50 mg/kg-day
  concentration at 91 day: 12.2 ± 9.91 ng/mL
[3]; female, Day 91, 100 mg/kg-day
  concentration at 91 day: 48.3 ± 22.9 ng/mL
[3]; female, Day 91, 200 mg/kg-day
  concentration at 91 day: 76.7 ± 24.1 ng/mL
[3]; male, Day 91, 200 mg/kg-day
  concentration at 91 day: 52.4 ± 24.1 ng/mL
[3]; female, Day 91, 12.5 mg/kg-day
  Parent chemical in plasma: BLOD (below the limit of detection—1.7 ng/mL)
[3]; female, Day 91, 25 mg/kg-day
  Parent chemical in plasma: <BLOD/≤LOQ
[3]; male, Day 91, 12.5 mg/kg-day
  Parent chemical in plasma: BLOD (below the limit of detection—1.7 ng/mL)
[3]; male, Day 91, 25 mg/kg-day
  Parent chemical in plasma: <BLOD/≤LOQ
[3]; male, Day 91, 50 mg/kg-day
  Parent chemical in plasma: 14.0 ± 6.21 ng/mL
[3]; male, Day 91, 100 mg/kg-day
  Parent chemical in plasma: 43.8 ± 7.53 ng/mL
